Assay results taken from ChEMBL document CHEMBL4819142, “Synthesis of propargylamine mycophenolate analogues and their selective cytotoxic activity towards neuroblastoma SH-SY5Y cell line” (Bioorg Med Chem Lett, 2021).

Experiments:
SH-SY5Y = assay: Cytotoxicity against human SH-SY5Y cells assessed as growth inhibition measured by SRB assay; type: functional, cell-based
MDA-MB-231 = assay: Cytotoxicity against human MDA-MB-231 cells assessed as growth inhibition measured by SRB assay; type: functional, cell-based
FaDu = assay: Cytotoxicity against human FaDu cells assessed as growth inhibition measured by SRB assay; type: functional, cell-based
A549 = assay: Cytotoxicity against human A549 cells assessed as growth inhibition measured by SRB assay; type: functional, cell-based
[1] = Cytotoxicity against human […] cells assessed as growth inhibition measured by SRB assay; type: cell-based
HT-29 = assay: Cytotoxicity against human HT-29 cells assessed as growth inhibition measured by SRB assay; type: functional, cell-based
[2] = Cytotoxicity against human KKUM213 cells assessed as growth inhibition measured by SRB assay; type: functional, cell-based; conditions: KKU-M213

| Compound | IC50 (SH-SY5Y) [µM] | IC50 (MDA-MB-231) [µM] | IC50 (FaDu) [µM] | IC50 (A549) [µM] | IC50 [1] [µM] | IC50 (HT-29) [µM] | IC50 [2] [µM] |
| --- | --- | --- | --- | --- | --- | --- | --- |
| COC(=O)CC/C(C)=C/Cc1c(OC)c(C)c2c(c1OCC#CCN1CCC(c3ccccc3)c3ccccc31)C(=O)OC2 (stereo not given) | 6.45 | 28.7 | 24.6 | 7.68 | 23.3 | 39.5 | 25.9 |
| COc1c(C)c2c(c(O)c1C/C=C(\C)CCC(=O)O)C(=O)OC2 [MYCOPHENOLIC ACID] | 0.56 | 7.83 | 6.72 | 1.21 | 7.19 | 6.48 | 7.16 |
| C=CCN(CC#CCOc1c(C/C=C(\C)CCC(=O)OC)c(OC)c(C)c2c1C(=O)OC2)CC=C | 36.4 | > 50 | > 50 | 43.5 | 36.4 | > 50 | > 50 |
| Cc1c2ccncc2c(C)c2c1[nH]c1ccccc12 [ELLIPTECINE] | 2.13 | 2.03 | 1.85 | 1.16 | 1.89 | 1.95 | 1.97 |
| COC(=O)CC/C(C)=C/Cc1c(OC)c(C)c2c(c1OCC#CCN1CCCC1)C(=O)OC2 | 31.1 | > 50 | > 50 | 35.9 | > 50 | 46.5 | > 50 |
| COC(=O)CC/C(C)=C/Cc1c(OC)c(C)c2c(c1OCC#CCN1CCCc3ccccc31)C(=O)OC2 | 9.57 | > 50 | > 50 | 18 | > 50 | > 50 | > 50 |
| COC(=O)CC/C(C)=C/Cc1c(OC)c(C)c2c(c1OCC#CCN1CCOCC1)C(=O)OC2 | > 50 | > 50 | > 50 | > 50 | > 50 | > 50 | > 50 |
| COC(=O)CC/C(C)=C/Cc1c(OC)c(C)c2c(c1OCC#CCN1CCN(c3ccc(C)cc3)CC1)C(=O)OC2 | 37.7 | > 50 | > 50 | > 50 | > 50 | > 50 | > 50 |
| COC(=O)CC/C(C)=C/Cc1c(O)c2c(c(C)c1OC)COC2=O | 0.26 | 9.62 | 6.15 | 0.82 | 5.82 | 23.7 | 7.45 |
| COC(=O)CC/C(C)=C/Cc1c(OC)c(C)c2c(c1OCC#CCN1CCN(Cc3ccc(Cl)cc3)CC1)C(=O)OC2 | 31.2 | > 50 | > 50 | > 50 | > 50 | > 50 | > 50 |
| C#CCOc1c(C/C=C(\C)CCC(=O)OC)c(OC)c(C)c2c1C(=O)OC2 | 3.07 | 49.2 | 15.2 | 31.8 | 25.2 | 28.8 | 35.7 |
| COC(=O)CC/C(C)=C/Cc1c(OC)c(C)c2c(c1OCC#CCN1CCN(c3ccccc3F)CC1)C(=O)OC2 | 35.8 | > 50 | > 50 | 45.3 | > 50 | > 50 | > 50 |
| COC(=O)CC/C(C)=C/Cc1c(OC)c(C)c2c(c1OCC#CCN1CCC(C(=O)OC)CC1)C(=O)OC2 | 41.2 | > 50 | > 50 | 40.5 | > 50 | > 50 | > 50 |
| CCCCNc1ccc(CC#CCOc2c(C/C=C(\C)CCC(=O)OC)c(OC)c(C)c3c2C(=O)OC3)cc1 | 5.96 | 19.8 | 21.2 | 6.97 | 18.3 | 36.7 | 22.9 |
| COC(=O)CC/C(C)=C/Cc1c(OC)c(C)c2c(c1OCC#CCN1CCN(CCO)CC1)C(=O)OC2 | 35.7 | > 50 | > 50 | > 50 | > 50 | > 50 | > 50 |
